Consider one compound from patent US8450325B2, “Methods for reducing the recurrence of cardiac arrhythmia” (ChanRx Corp., priority 2002, dated 2013).

The target in one series is T1, rKv4.3 (Ito) channel (Rattus norvegicus, UniProt Q62897).
T1 sequence (Q62897 1-655): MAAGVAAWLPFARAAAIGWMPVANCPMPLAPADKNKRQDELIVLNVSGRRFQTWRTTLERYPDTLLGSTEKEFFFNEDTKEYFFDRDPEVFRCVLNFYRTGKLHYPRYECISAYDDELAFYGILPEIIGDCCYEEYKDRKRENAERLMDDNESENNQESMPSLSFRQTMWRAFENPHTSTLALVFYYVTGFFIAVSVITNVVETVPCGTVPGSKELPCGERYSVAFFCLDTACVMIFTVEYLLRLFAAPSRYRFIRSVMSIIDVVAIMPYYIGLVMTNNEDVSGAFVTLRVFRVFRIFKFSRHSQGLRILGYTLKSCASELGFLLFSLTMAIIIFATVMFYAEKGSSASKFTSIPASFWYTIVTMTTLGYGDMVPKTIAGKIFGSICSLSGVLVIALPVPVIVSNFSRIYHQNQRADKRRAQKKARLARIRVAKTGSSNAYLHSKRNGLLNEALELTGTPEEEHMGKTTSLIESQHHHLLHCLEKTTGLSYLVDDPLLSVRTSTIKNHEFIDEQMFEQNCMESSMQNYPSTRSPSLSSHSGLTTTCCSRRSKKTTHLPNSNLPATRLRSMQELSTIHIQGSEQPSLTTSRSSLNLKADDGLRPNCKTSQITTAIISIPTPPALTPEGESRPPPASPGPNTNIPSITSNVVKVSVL
Put plainly: voltage clamp current block, rKv4.3 channel in stably transfected mammalian cells. The note with it: Ito (rKv4.3); 0.067 Hz, 4 bpm. Format: cell-based.

Series [1] addresses T2, native cardiac L-type calcium channel (gpCaCh, ICa,L) (Cavia porcellus, UniProt O35505).
T2 construct: native cardiac L-type calcium channel expressed in guinea pig cardiomyocytes; endogenous in cells; host or cells: guinea pig cardiomyocytes
Put plainly: voltage clamp current block, native cardiac L-type calcium channel in guinea pig cardiomyocytes. Format: cell-based. The following applies: 0.05 Hz, 3 beats per minute.

In a further series the target is hKv1.5 channel (Homo sapiens, UniProt P22460). Put plainly: voltage clamp current block, hKv1.5 channel in stably transfected mammalian cells. Format: cell-based. The following applies: 0.1 Hz, 6 bpm.
For series [2], the target named is hKvLQT1/hminK (IKs) channel (Homo sapiens, UniProt P51787). Put plainly: voltage clamp current block, hKvLQT1/hminK channel in stably transfected mammalian cells. Format: cell-based. The following applies: 0.067 Hz, 4 bpm, unit inferred; read-out: IC50, block of IKs (hKvLQT1/hminK) channels.
A further series addresses hERG (IKr) channel (Homo sapiens, UniProt Q12809). In words: in vitro. The source says: (§1) Nonlinear least squares fits of the current ratio data yielded the best fit value for the IC50 concentration. A positive control was included for each channel tested in the study.
A further series has as its system dog Purkinje fibers. Put plainly: duration of the cardiac action potential in dog Purkinje fibers. Also on record: dose or concentration left out as unconfirmed.
The conditions of series [3]: 100 mg doses for 1 week; cited from earlier work.
The target of a further series is hHNa ion channel (Homo sapiens, UniProt Q14524). In words: voltage clamp current block, hHNa channel in stably transfected mammalian cells. The series is classed as cell-based. The following applies: 0.1 Hz, 6 bpm.
From the text: as §1

Entries after “also recorded” stand apart in the source; their conditions may differ.

Chain of hHNa ion channel (Q14524 whole entry): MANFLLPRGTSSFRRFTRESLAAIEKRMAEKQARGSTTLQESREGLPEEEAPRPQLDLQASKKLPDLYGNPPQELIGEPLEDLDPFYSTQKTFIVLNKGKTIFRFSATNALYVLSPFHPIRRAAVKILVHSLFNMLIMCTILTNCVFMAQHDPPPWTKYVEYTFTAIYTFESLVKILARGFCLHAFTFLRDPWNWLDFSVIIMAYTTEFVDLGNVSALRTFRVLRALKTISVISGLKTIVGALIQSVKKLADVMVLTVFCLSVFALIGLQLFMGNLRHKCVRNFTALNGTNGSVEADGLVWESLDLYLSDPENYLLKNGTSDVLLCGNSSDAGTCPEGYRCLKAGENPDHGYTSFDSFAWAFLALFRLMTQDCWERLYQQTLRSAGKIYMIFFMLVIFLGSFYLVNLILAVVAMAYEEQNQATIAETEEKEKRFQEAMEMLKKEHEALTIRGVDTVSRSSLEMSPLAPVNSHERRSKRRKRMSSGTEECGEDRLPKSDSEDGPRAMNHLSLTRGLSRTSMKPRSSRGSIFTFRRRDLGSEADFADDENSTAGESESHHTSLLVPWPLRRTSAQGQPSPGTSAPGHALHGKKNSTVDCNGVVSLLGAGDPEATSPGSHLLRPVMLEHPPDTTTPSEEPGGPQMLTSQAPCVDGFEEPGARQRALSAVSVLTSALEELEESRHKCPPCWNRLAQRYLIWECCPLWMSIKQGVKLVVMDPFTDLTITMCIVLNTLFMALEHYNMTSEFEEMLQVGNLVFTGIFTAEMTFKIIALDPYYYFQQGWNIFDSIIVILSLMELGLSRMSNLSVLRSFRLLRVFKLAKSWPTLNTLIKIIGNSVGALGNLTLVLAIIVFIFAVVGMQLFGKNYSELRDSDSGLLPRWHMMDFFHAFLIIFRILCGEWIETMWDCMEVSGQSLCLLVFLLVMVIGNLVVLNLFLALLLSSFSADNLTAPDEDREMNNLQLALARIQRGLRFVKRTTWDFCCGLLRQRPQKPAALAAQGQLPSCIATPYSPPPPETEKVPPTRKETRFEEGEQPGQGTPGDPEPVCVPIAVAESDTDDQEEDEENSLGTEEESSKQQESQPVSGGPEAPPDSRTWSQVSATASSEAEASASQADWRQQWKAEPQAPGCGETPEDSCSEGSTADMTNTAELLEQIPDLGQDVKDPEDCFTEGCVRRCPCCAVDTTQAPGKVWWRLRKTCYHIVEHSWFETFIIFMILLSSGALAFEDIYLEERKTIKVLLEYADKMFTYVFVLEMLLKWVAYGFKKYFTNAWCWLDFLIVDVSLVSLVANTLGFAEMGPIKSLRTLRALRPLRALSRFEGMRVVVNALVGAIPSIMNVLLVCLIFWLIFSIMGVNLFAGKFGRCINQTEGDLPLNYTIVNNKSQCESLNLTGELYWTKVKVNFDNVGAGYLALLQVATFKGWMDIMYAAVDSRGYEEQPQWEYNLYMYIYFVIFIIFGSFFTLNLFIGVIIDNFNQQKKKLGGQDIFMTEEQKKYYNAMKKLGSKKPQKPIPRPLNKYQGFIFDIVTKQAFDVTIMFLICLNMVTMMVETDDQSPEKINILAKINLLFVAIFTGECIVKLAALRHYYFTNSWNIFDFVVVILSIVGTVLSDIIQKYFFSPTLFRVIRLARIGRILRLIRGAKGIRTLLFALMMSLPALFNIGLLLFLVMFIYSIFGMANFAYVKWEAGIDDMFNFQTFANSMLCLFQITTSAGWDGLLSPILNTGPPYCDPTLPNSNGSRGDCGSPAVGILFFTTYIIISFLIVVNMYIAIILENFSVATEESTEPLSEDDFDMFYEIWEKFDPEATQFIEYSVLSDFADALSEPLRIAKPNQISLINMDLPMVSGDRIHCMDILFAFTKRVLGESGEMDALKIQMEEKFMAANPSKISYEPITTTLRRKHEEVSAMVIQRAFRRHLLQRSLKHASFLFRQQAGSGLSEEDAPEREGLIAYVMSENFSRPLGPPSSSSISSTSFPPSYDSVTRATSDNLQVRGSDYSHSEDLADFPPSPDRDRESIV
Chain of hERG (IKr) channel (Q12809 whole entry): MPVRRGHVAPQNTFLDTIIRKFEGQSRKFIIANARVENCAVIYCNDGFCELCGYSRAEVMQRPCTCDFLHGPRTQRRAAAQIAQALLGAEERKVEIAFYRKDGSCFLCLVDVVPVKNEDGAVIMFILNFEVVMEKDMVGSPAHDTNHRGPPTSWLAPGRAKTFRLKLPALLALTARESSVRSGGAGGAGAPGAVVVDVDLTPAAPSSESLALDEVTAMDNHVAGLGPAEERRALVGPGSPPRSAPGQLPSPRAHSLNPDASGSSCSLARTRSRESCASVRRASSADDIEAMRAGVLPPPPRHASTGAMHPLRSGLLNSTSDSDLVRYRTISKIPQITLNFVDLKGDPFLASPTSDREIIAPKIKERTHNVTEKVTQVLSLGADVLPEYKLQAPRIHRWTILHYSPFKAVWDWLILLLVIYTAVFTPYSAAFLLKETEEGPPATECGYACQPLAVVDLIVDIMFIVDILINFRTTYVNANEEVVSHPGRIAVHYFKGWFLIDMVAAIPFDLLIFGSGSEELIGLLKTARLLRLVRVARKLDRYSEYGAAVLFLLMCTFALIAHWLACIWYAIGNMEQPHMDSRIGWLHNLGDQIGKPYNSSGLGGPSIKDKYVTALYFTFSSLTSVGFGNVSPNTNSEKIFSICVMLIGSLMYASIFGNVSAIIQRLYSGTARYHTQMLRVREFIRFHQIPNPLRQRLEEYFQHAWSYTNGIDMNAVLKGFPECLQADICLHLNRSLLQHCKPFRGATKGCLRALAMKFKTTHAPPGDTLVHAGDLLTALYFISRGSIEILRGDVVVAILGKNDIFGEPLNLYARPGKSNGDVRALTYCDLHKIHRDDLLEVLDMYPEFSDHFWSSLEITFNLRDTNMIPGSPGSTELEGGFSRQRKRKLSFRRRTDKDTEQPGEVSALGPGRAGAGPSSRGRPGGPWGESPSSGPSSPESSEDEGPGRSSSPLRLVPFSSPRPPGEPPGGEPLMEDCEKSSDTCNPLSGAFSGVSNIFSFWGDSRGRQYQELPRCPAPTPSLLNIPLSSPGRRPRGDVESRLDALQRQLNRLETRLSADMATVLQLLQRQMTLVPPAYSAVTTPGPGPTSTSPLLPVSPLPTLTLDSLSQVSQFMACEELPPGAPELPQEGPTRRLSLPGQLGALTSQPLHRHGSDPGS
Chain of hKv1.5 channel (P22460 whole entry): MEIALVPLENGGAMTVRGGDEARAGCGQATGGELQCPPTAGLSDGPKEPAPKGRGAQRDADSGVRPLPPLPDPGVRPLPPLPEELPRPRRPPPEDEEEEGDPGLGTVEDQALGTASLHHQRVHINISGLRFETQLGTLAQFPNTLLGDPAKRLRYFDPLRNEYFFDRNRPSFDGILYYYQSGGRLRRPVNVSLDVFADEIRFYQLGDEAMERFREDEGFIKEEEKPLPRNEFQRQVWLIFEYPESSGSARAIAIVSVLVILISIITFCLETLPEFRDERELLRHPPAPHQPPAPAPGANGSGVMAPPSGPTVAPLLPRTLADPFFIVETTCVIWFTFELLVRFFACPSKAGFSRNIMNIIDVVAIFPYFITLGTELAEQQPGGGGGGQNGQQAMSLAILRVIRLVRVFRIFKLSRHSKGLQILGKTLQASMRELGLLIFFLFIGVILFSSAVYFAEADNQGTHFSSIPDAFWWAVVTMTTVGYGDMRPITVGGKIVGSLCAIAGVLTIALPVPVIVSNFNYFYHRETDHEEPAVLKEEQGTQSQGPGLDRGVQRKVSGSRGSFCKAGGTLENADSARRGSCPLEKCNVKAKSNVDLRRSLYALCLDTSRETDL

Consider `Fc1ccc(C(OCCN2CCN(CCCc3ccccc3)CC2)c2ccc(F)cc2)cc1` [Vanoxerine, vanoxerine], for which the IC50 against rKv4.3 (Ito) channel was 12000 nM; in series [1], 530 nM; at hKv1.5 channel it was 2000 nM; in series [2], 4200 nM; at hERG (IKr) channel, 150 nM; at hHNa ion channel (read-out: IC50 estimate, block of hHNa (Hill equation fit)), 570 nM. Also, in the series on dog Purkinje fibers, the “effect on the duration of the cardiac potential” value is listed as “no effect; also recorded: did not prolong”. Also, in series [3], the serum concentration entry was “about 100 nM”. Further, on hHNa ion channel (Hill equation fit), the “Hill coefficient, block of hHNa” value was “greater than 2.0”.
